Measurements taken from patent US9877938B2 (priority 2014, dated 2018).

Columns and labels:
[1] = system: plasma; assay: Anticoagulant activity: prothrombin time (PT), Sysmex CA-1500; type: biochemical, human; conditions: 20 μl sample + 80 μl plasma, test material g/dL as in label, Asp 7.5 mg/ml, N=3
Procedure: (§1) Antithrombotic (anticoagulant) activity was evaluated according to a previously reported method. Each of thromborel S, actin and thrombin, which are reagents for Sysmex CA-1500 for analysis of PT, aPTT and TT, was mounted in Sysmex CA-1500 (Siemens Healthcare, Germany) which is an automated blood coagulation test device. According to the automated procedure of the test device, clotting time (sec) (prothrombin time (PT), activated partial thromboplastin time (aPTT) and thrombin time (TT)) was measured. A sufficient amount of a sample for each of the three analyses was about 400 uL of an 80:20 mixture of plasma and a test substance.
(§2) The isolated plasma was used in an experiment in a fresh state within 5-6 hours.
(§3) In this experiment, for the relative comparison of the measured clotting time (sec) (PT, aPTT and TT) between test groups, clotting time prolongation (%) relative to triple distilled water (purified water) that is a normal control test sample was statistically analyzed. For statistical analysis, the […] anticoagulant activities of test materials were comparatively analyzed using SPSS IBM version 21.0 by one-way ANOVA at p<0.05, and significance comparison between groups was performed by Duncan's test.
The aspirin solution was immediately used at room temperature in a light-shielded state or was cold-stored.
As a control, aspirin was used, and as a vehicle control, triple distilled water (purified water) was used instead of the sample.

[2] = system: plasma; assay: Anticoagulant activity: activated partial thromboplastin time (aPTT), Sysmex CA-1500; type: biochemical, human; conditions: Table 4; 20 μl sample + 80 μl plasma; test material g/dL as in label; Asp 7.5 mg/ml; N=3
Procedure: as §1, §2, §3
The aspirin solution was immediately used at room temperature in a light-shielded state or was cold-stored. […]

[3] = system: male mice (C57BL/6) fed high-fat diet; assay: Body weight and body weight gain of high-fat diet mice; type: in vivo; conditions: for Body weight gain, Mean: HFD mice, metformin 250 mg/kg; for body weight gain compared to high-fat diet (HFD) alone (in words): at 8 weeks after HFD feeding; for Body weight gain: mean
Procedure: (§4) Using 8-week-old male mice (C57BL/6) (purchased from CoreTech), anti-diabetic candidate materials were evaluated using a GTT (Glucose Tolerance Test) that is a typical method for diagnosis of diabetes.
(§5) Mice were housed at a temperature of 22±2° C. and a relative humidity of 55-60% with 12-hr light/12-hr dark cycles. Five animals were allotted to each group, and mice from the same mother were grouped into one group, because male mice tend to fight together.
(§6) As feed, high-fat diet (60% of calories from fat; Research Diet Inc., New Brunswick, N.J.) and water were fed ad libitum for 10 weeks. Herein, the water fed contained the samples prepared in Examples 1-2 (3), 2-1, 2-4-1, 2-4-2 and 2-5. As a positive control, metformin (M-072, Sigma) (250 mg/kg) was used, and as a control, the samples prepared in Comparative Examples 1-1, 2-3-2, 2-5-1, 2-5-2 and 2-6 were used.
(§7) For reference, each of the samples prepared in Examples 2-4-1, 2-4-2 and 2-5 was set to the amount to be taken by an adult (60 kg) for 3 days, and the amount was converted into a mouse dose (12-fold/kg, see the US NIH guidance), thereby preparing animal feed. Namely, the amount to be taken by an adult (60 kg) for 3 days is 180-day dose/kg, which corresponds to 15-day dose/kg for mice. Thus, the amount corresponds to 750-day dose/mouse (20 g), because the average weight of mice is about 20 g. Thus, one mouse was allowed to take 1/750 of the prepared sample each day.
(§8) In addition, each of the samples prepared in Examples 1-2 (3) and 2-1 was set to the amount to be taken by an adult (60 kg) for 2 days, and the amount was converted into a mouse dose (12-fold/kg, see the US NIH guidance), thereby preparing animal feed. Namely, the amount to be taken by an adult (60 kg) for 2 days is 120-day dose/kg, which corresponds to 10-day dose/kg for mice. Thus, the amount corresponds to 500-day dose/mouse (20 g), because the average weight of mice is about 20 g. Thus, one mouse was allowed to take 1/500 of the prepared sample each day.
The diet intake and the body weight gain were measured weekly for 8 weeks. The body weight and the diet intake were measured immediately before first drug administration, and then measured at one-week intervals.
(§9) Meanwhile, experimental analysis results were expressed as mean±S.E.M., and the significance between test groups was statistically processed using Student T-TEST, and then the significance was verified at *P<0.05.

[4] = system: male mice (C57BL/6) fed high-fat diet; assay: Glucose tolerance test (GTT) in high-fat diet mice; type: in vivo; conditions: for fasting glucose level (in words) / glucose control ability in GTT compared with HFD alone (in words): 8 weeks of HFD; for fasting glucose level (in words): 8 h fasting, compared with HFD alone, normal mice or other group; for glucose control ability in GTT compared with HFD alone (in words): glucose 1 g/kg i.p.; for Glucose level: mean
Procedure: as §4, §5, §6, §7, §8
At 8 weeks of high-fat diet feeding, a glucose tolerance test (GTT) was performed. For 8 hours for the test, mice were fasted. Then, blood was sampled from the tail vein, and initial blood glucose levels were measured with a blood glucose meter (AUTO-CHEK, Diatech Korea). Then, glucose was administered intraperitoneally to the mice at a concentration of 1 g/kg, and after 30 min, 60 min, 90 min and 120 min, blood was sampled from the mice, followed by measurement of blood glucose levels (each group consisting of five animals).
as §9

[5] = system: male mice (C57BL/6) fed high-fat diet; assay: Blood biochemistry (triglyceride, AST, ALT) in high-fat diet mice; type: in vivo
Procedure: as §6, §7, §8
In blood biochemistry, insulin (AKRIN-011T, Shibayagi, Japan), glucose (AM202, Asan Pharmaceutical Co., Ltd., Korea), triglyceride (AM157, Asan Pharmaceutical Co., Ltd.), total cholesterol (AM202, Asan Pharmaceutical Co., Ltd.), AST and ALT (Asan Pharmaceutical Co., Ltd.) were analyzed using enzymatic assay kits.
(§10) At 10 weeks of high-fat diet feeding, the mice were sacrificed by cervical dislocation to obtain serum. For histological examination, the liver, white adipose tissue (WAT), brown adipose tissue (BAT) and kidney were fixed with formalin (50-00-0, Junsei, Japan), and the remaining organs were stored at −70° C. The blood sampled from the heart was coagulated to obtain serum which was then stored at −70° C.
as §9

[6] = system: male mice (C57BL/6) fed high-fat diet; assay: Histological examination of liver, WAT, BAT and kidney; type: in vivo; conditions: HFD mice, 10 weeks
Procedure: as §6, §10
For histological examination, the major organs and adipose were fixed in 4% neutral buffered formalin and embedded in paraffin blocks, and the paraffin blocks were sectioned at 5 μm and stained with hymatoxylin (MHS-16, Sigma-Aldrich, USA) and eosin (HT110116, Sigma-Aldrich). The prepared tissue samples were mounted in glycerin gel mounting media (SP15-100, Fisher Scientific, USA), covered with cover glass, and observed with a microscope (IX71, OLYMPUS, USA). The tissue was imaged with the camera equipped in the microscope.

[7] = 8 weeks, sample in drinking water (1/500 per day), Tables 6, 9, 12
[8] = HFD mice serum, compared with reference diet, HFD or other group

O=C(CO)[C@@H](O)[C@H](O)[C@H](O)CO [Fruc 12.4, fructose]
PT clotting time prolongation relative to purified water, Mean ([1]; Table 4): 0.54% | aPTT clotting time prolongation relative to purified water, Mean [2]: 0.58%

NCCS(=O)(=O)O [DT19, taurine, reference compound]
Body weight gain, Mean [3, 7]: 9.52 g | body weight gain compared to high-fat diet (HFD) alone (in words) [3]: significant reduction in body weight gain | fasting glucose level (in words) [4]: lower than that of the mice administered with high-fat diet (HFD), and were similar to the blood glucose levels of normal mice | glucose control ability in GTT compared with HFD alone (in words) [4]: significantly higher than that of the group administered with HFD alone

O=C(CO)[C@@H](O)[C@H](O)[C@H](O)CO [Fruc 6.2, fructose]
PT clotting time prolongation relative to purified water, Mean ([1]; Table 4): 0.54% | aPTT clotting time prolongation relative to purified water, Mean [2]: −0.20%

NCCS(=O)(=O)O [DT15]
Body weight gain, Mean ([3]; 2 weeks, sample in drinking water (1/500 per day), Tables 6, 9, 12): 4.40 g | Body weight gain, Mean [3, 7]: 11.58 g | body weight gain compared to high-fat diet (HFD) alone (in words) [3]: significant reduction in body weight gain | triglyceride level (in words) ([5]; HFD mice serum, compared with normal/reference diet or other group): significantly lower than that of DT19 | ALT level (in words) [5, 8]: lower than those of DT19 | AST level (in words) [5, 8]: lower than those of DT19 | ALT level ([5]; blood, mean): 14.02 IU/L | AST level ([5]; blood, mean): 98.96 IU/L | Triglyceride level ([5]; blood, mean): 53.62 mg/dL | accumulation of adipose in brown adipose tissue (histology) [6]: decreased | development of fatty liver (histology) [6]: decreased | nephrotoxicity (histology) ([6]; kidney): did not appear | fasting glucose level (in words) [4]: lower than that of the mice administered with high-fat diet (HFD), and were similar to the blood glucose levels of normal mice | glucose control ability in GTT compared with HFD alone (in words) [4]: significantly higher than that of the group administered with HFD alone | Glucose level ([4]; GTT 0 min (fasting)): 121.25 mg/dL | Glucose level ([4]; GTT 30 min): 335.25 mg/dL | Glucose level ([4]; GTT 60 min): 295.25 mg/dL | Glucose level ([4]; GTT 90 min): 193.75 mg/dL | Glucose level ([4]; GTT 120 min): 126.25 mg/dL

CC(=O)Oc1ccccc1C(=O)O [Asp, aspirin]
PT clotting time prolongation relative to purified water, Mean ([1]; Table 2): 9.90%

CN(C)C(=N)N=C(N)N [Metformin, metformin]
Body weight gain, Mean ([3]; 1 week, Table 15 experiment, sample in drinking water (1/750 per day)): 2.445 g | Body weight gain ([3]; 2 weeks): 2.503 g | Body weight gain ([3]; 3 weeks): 4.020 g | Body weight gain, Mean ([3]; 4 weeks, Table 15 experiment, sample in drinking water (1/750 per day)): 4.600 g | Body weight gain ([3]; 4 weeks): 4.600 g | Body weight gain ([3]; 5 weeks): 6.093 g | Body weight gain ([3]; 6 weeks): 7.250 g | Body weight gain ([3]; 7 weeks): 6.263 g | Body weight gain, Mean ([3]; 8 weeks, Table 15 experiment, sample in drinking water (1/750 per day)): 8.238 g
